Assay type in all cases: ADME, cell-based
Common to all, as to conditions: nih3t3

The nature of series [1]: Drug uptake in mouse NIH/3T3 cells assessed as fluorescent optical switching measured after every 2 s with 100 ms pulse of 365 nm irradiation by optical lock-in detection imaging microscopy.
A short description of series [2]: Drug uptake in mouse NIH/3T3 cells assessed as fluorescent optical switching measured after continuous irradiation at 546 and 365 nm light by optical lock-in detection imaging microscopy.
The nature of series [3]: Drug uptake in mouse NIH/3T3 cells assessed as fluorescent optical switching measured after continuous irradiation at 546 nm light by optical lock-in detection imaging microscopy. Further details: dose or concentration left out as unconfirmed; call rule not given here.

For 7 compounds, Drug uptake results are on record in ChEMBL document CHEMBL1667741, “Rational design, synthesis, and characterization of highly fluorescent optical switches for high-contrast optical lock-in detection (OLID) imaging microscopy in living cells” (Bioorg Med Chem, 2011).

Structures are written as SMILES.

Consider `CN(C)c1ccc2c(-c3ccc(C(=O)NCc4cccc5c4C(C)(C)C4(C=Nc6c(ccc7ccccc67)O4)N5C)cc3C(=O)[O-])c3ccc(=[N+](C)C)cc-3oc2c1` (centres undefined), for which the Drug uptake entry in series [1] and in series [2] was “Active” throughout.
Turning to `COc1ccc2ccc3c(c2c1)N=CC1(O3)N(C)c2cccc(CNC(=O)c3ccc(-c4c5ccc(=[N+](C)C)cc-5oc5cc(N(C)C)ccc45)c(C(=O)[O-])c3)c2C1(C)C` (centres undefined), the Drug uptake entry in series [2] and in series [3] was “Active” each time.
For the compound `CN(C)c1ccc2c(-c3ccc(C(=O)NCc4cccc5c4C(C)(C)C4(C=Nc6c(ccc7ccc(O)cc67)O4)N5C)cc3C(=O)[O-])c3ccc(=[N+](C)C)cc-3oc2c1` (centres undefined), in series [2], the Drug uptake entry is reported as “Active”.
Consider `CN(C)c1ccc2c(-c3ccc(C(=O)NCCc4ccc5c(c4)C(C)(C)C4(C=Nc6c(ccc7ccccc67)O4)N5C)cc3C(=O)[O-])c3ccc(=[N+](C)C)cc-3oc2c1` (centres undefined), for which the Drug uptake result in series [2] is listed as “Active”.
Still for that read-out and setting: next, `CN(C)c1ccc2c(-c3ccc(C(=O)NC(CCCCNC(=O)CCCc4ccc5c(c4)C(C)(C)C4(C=Nc6c(ccc7ccccc67)O4)N5C)C(=O)O)cc3C(=O)[O-])c3ccc(=[N+](C)C)cc-3oc2c1` (centres undefined): “Active”.
Same read-out and setting: then `CN(C)c1ccc2c(-c3ccc(C(=O)NCCCOc4ccc5ccc6c(c5c4)N=CC4(O6)N(C)c5ccc(CCCC(=O)ON6C(=O)CCC6=O)cc5C4(C)C)cc3C(=O)[O-])c3ccc(=[N+](C)C)cc-3oc2c1` (centres undefined), with “Active”.
Still for that read-out and setting: then `CN(C)c1ccc2c(-c3ccc(C(=O)NCCCOc4ccc5ccc6c(c5c4)N=CC4(O6)N(CCCCCC(=O)ON5C(=O)CCC5=O)c5ccccc5C4(C)C)cc3C(=O)[O-])c3ccc(=[N+](C)C)cc-3oc2c1` (centres undefined), with “Active”.
